Where a name gives a salt, the structure may show the parent alone.

As for `CCc1c(NC(=O)OC[C@@H]2COCCN2)cn2ncnc(Nc3ccc4c(cnn4Cc4ccccc4)c3)c12` (as salt: hydrochloride) [Example 1, [5-ethyl-4-[[(1-phenylmethyl)-1H-indazol-5-yl]amino]pyrrolo[2,1-f][1,2,4]triazin-6-yl]-carbamic acid, (3S)-3-morpholinylmethyl ester], the melting point was above 300 °C.

As a reminder, the melting point is the temperature, or range, at which the solid turns liquid.

Values taken from patent publication US6916815B2, “C-6 modified indazolylpyrrolotriazines” (Bristol-Myers Squibb Company, priority 2002, dated 2005).
